Measurements as given in patent US6465618B1, “Mitogen activated protein kinase (MAPK) kinase” (Asahi Kasei Kabushikiki Kaisha, priority 1997, dated 2002).

Tests used:
MKK7 = assay: Activation of MKK7 by TNF-α in KB and U937 cells (immune complex kinase assay); assay type: cell-based; conditions: KB cells 20 ng/ml, U937 cells 100 ng/ml human TNF-α; 5 to 180 minutes
Description: (§1) KB cells were cultured in Dulbecco's modified Eagles medium (DMEM) containing 10% bovine serum, and the cultured cells were stimulated with 20 ng/ml human TNF-α (manufactured and sold by BECTON DICKINSON AND COMPANY, USA, under the brand of Collaborative Biomedical Products). U937 cells were cultured in RPMI 1640 medium containing 10% fetal bovine serum, and the cultured cells were stimulated with 100 ng/ml human TNF-α. The cells were sampled from each cell culture 5, 15, 30, 60, 120 and 180 minutes after the start of the stimulation to thereby prepare cell extracts. The cell extracts were prepared as follows. The sampled cells were suspended in 0.7 M NaCl solution and washed once with ice-cold HEPES-buffered saline. […]
(§2) To 200 μl of the cell extract was added 3 μl of an antiserum (anti-MKK7 antiserum and anti-SEK1/MKK4 antiserum were separately used), and a reaction for preparing an immune complex was allowed to proceed while incubating at 4° C. for 1 hour. […] The phosphorylation of c-Jun was detected by autoradiography and used as an index for the activation of MKK7 or SEK1/MKK4 by TNF-α.

SEK1/MKK4 = assay: Activation of SEK1/MKK4 by TNF-α in KB and U937 cells (immune complex kinase assay); assay type: cell-based; conditions: KB cells 20 ng/ml, U937 cells 100 ng/ml human TNF-α; 5 to 180 minutes
Description: as §1, §2

TNF-α
activation of MKK7 by TNF-α (phosphorylation of c-Jun as index) (MKK7): activated
activation of SEK1/MKK4 by TNF-α (phosphorylation of c-Jun as index) (SEK1/MKK4): did not activate
